The text below walks through data of paper PMC4255150 (Structure (London, England : 1993), 2014).

The target in this assay is T1, AmiA (Bacteroides uniformis, UniProt A0ABC9NAU1).
T1 sequence (A0ABC9NAU1 24-262): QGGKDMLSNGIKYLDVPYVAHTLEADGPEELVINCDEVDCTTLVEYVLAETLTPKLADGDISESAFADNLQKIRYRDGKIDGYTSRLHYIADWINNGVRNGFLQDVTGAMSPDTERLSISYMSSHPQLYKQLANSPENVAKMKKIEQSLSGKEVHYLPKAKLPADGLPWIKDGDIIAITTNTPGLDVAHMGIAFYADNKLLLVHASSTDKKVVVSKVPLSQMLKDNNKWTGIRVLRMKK
The assay can be described thus: HPLC inhibition assay with TCT. The class given is biochemical. The note with it: 0.1 mM TCT substrate, pH 7.8, 37°C.

With `CC(=O)N[C@H]1C(O)O[C@H](CO)[C@@H](O)[C@@H]1O` (stereo partly drawn) [GlcNAc], the “% activity retained at 1 mM” value turned out to be 98%. On to `CC(=O)N[C@H]1[C@H](O[C@H]2[C@H](O[C@H](C)C(=O)O)[C@@H](NC(C)=O)[C@@H]3OC[C@H]2O3)O[C@H](CO)[C@@H](O)[C@@H]1O` [GlcNAc-anhMurNAc], for which the “% activity retained at 1 mM” value (reaction product) is on record as 15%. `CC(=O)N[C@H]1C(O)O[C@H](CO)[C@@H](O)[C@@H]1O[C@H](C)C(=O)O` (stereo partly drawn) [MurNAc]: the “% activity retained at 1 mM” value turned out to be 25%.
